Reference: ChEMBL document CHEMBL5108044, “Discovery of a Novel Potent STAT3 Inhibitor HP590 with Dual p-Tyr705/Ser727 Inhibitory Activity for Gastric Cancer Treatment” (J Med Chem, 2022)
Activity calls are given as the source filed them. The calls are words filed in the database; no cut-off is given here.

Tests used:
[1] = target: T1, Signal transducer and activator of transcription 3 (Homo sapiens, UniProt P40763); test: Binding affinity to human STAT3 (127 to 722 residues) assessed as dissociation constant by MST assay
MKN-45 [2] = test: In vivo inhibition of STAT3 phosphorylation at Tyr705 residue in human MKN-45 cells xenografted in BALB/c nude mouse at 25 to 50 mg/kg, po qd administered for 5 weeks by immunohistochemical analysis; format: functional, organism-based; settings: dose 25-50 mg/kg
MKN-45 [3] = test: Induction of apoptosis in human MKN-45 cells assessed as late apoptic cells 10 nM incubated for 48 hrs by FITC-annexin V/propidium iodide staining based flow cytometry (reference value: 17.9%); format: functional
[4] = target: T1, Signal transducer and activator of transcription 3; test: Inhibition of STAT3 phosphorylation at Tyr705 residue in human MKN-45 cells upto 40 nM incubated upto 24 hrs by Western blotting analysis; format: cell-based
AGS [5] = test: Induction of apoptosis in human AGS cells assessed as viable cells at 5 nM incubated for 48 hrs by FITC-annexin V/propidium iodide staining based flow cytometry (reference value: 87.2%); format: functional; settings: read-out: Activity
[6] = Elimination half life in ICR mouse plasma at 10 mg/kg, po measured up to 24 hrs by LC-MS/MS analysis; format: ADME, organism-based; settings: read-out: beta t1/2 (converted)
[7] = target: T1, Signal transducer and activator of transcription 3; test: Inhibition of STAT3 in human AGS cells assessed as downregulation of c-Myc expression incubated up to 24 hrs by western blot analysis; format: cell-based; settings: dose <= 40.0 nM, DDE = dose-dependent effect
[8] = Toxicity in […] mouse xenografted with human MKN-45 cells assessed as lung damage at 25 to 50 mg/kg, po qd administered for 5 weeks by H and E staining based analysis; format: organism-based; settings: in vivo, 840 h, dose 25-50 mg/kg
[9] = target: T1, Signal transducer and activator of transcription 3; test: Inhibition of STAT3 in human MGC-803 cells assessed as downregulation of cyclin D1 expression incubated up to 24 hrs by western blot analysis; format: cell-based; settings: dose <= 40.0 nM, DDE = dose-dependent effect
[10] = Toxicity in […] mouse xenografted with human MKN-45 cells assessed as kidney damage at 25 to 50 mg/kg, po qd administered for 5 weeks by H and E staining based analysis; format: organism-based; settings: in vivo, 840 h, dose 25-50 mg/kg
[11] = Toxicity in BALB/c nude mouse xenografted with human MKN-45 cells assessed as lung damage at 25 to 50 mg/kg, po qd administered for 5 weeks by H and E staining based analysis; format: organism-based; settings: in vivo, 840 h, dose 25-50 mg/kg
AGS [12] = test: Induction of apoptosis in human AGS cells assessed as late apoptic cells 10 nM incubated for 48 hrs by FITC-annexin V/propidium iodide staining based flow cytometry (reference value: 9.56%); format: functional
AGS [13] = test: Potency index, ratio of IC50 for BBI608 to IC50 for test compound for antiproliferative activity against human AGS cells assessed as reduction in cell viability incubated for 72 hrs by MTS assay; format: functional
[14] = target: T1, Signal transducer and activator of transcription 3; test: Inhibition of STAT3 in human AGS cells assessed as downregulation of Survivin expression at 10 to 40 nM incubated for 24 hrs by RT-PCR analysis; format: cell-based; settings: dose 10-40 nM
MKN-45 [15] = test: Induction of apoptosis in human MKN-45 cells assessed as necrotic cells 5 nM incubated for 48 hrs by FITC-annexin V/propidium iodide staining based flow cytometry (reference value: 10.3%); format: functional
MKN-45 [16] = test: Antitumor activity against human MKN-45 cells xenografted in po dosed BALB/c nude mouse assessed as decrease in tumor volume measured for 5 weeks; format: functional, organism-based; settings: dose 25-50 mg/kg, DDE = dose-dependent effect
MKN-45 [17] = test: Antiproliferative activity against human MKN-45 cells assessed as cell viability incubated for 72 hrs by MTS assay; format: functional, cell-based; settings: dose <= 100.0 nM, DDE = dose-dependent effect
[18] = target: T1, Signal transducer and activator of transcription 3; test: Binding affinity to human STAT3 transfected in HEK293T cells assessed as change in melting temperature at 5 uM by thermal shift assay; format: cell-based
[19] = Toxicity in BALB/c nude mouse assessed as body weight loss at 25 to 50 mg/kg, po qd administered for 5 weeks; format: organism-based; settings: in vivo, 840 h, dose 25-50 mg/kg
[20] = target: T1, Signal transducer and activator of transcription 3; test: Inhibition of STAT3 in human MKN-45 cells assessed as downregulation of c-Myc expression incubated up to 24 hrs by western blot analysis; format: cell-based; settings: dose <= 40.0 nM, DDE = dose-dependent effect
AGS [21] = test: Induction of apoptosis in human AGS cells assessed as early apoptic cells 10 nM incubated for 48 hrs by FITC-annexin V/propidium iodide staining based flow cytometry (reference value: 0.55%); format: functional
AGS [22] = test: Antiproliferative activity against human AGS cells assessed as reduction in cell viability incubated for 72 hrs by MTS assay; format: functional, cell-based
MKN-45 [23] = test: In vivo inhibition of STAT3 phosphorylation at Ser727 residue in human MKN-45 cells xenografted in BALB/c nude mouse at 25 to 50 mg/kg, po qd administered for 5 weeks by western blot analysis; format: functional, organism-based; settings: dose 25-50 mg/kg
[24] = Toxicity in […] mouse xenografted with human MKN-45 cells assessed as heart damage at 25 to 50 mg/kg, po qd administered for 5 weeks by H and E staining based analysis; format: organism-based; settings: in vivo, 840 h, dose 25-50 mg/kg
[25] = AUC (0 to infinity) in ICR mouse plasma at 10 mg/kg, po measured up to 24 hrs by LC-MS/MS analysis; format: ADME, organism-based; design: dose 10 mg/kg, time < 24 hrs, route po
MGC-803 [26] = test: Antiproliferative activity against human MGC-803 cells assessed as reduction in cell viability incubated for 72 hrs by MTS assay; format: functional, cell-based; settings: MGC-803, 72 h
[27] = target: T1, Signal transducer and activator of transcription 3; test: Inhibition of STAT3 in human MKN-45 cells assessed as downregulation of cyclin D1 expression incubated up to 24 hrs by western blot analysis; format: cell-based; settings: dose <= 40.0 nM, DDE = dose-dependent effect
[28] = target: T1, Signal transducer and activator of transcription 3; test: Inhibition of STAT3 in human MKN-45 cells assessed as downregulation of cyclin D1 expression at 10 to 40 nM incubated for 24 hrs by RT-PCR analysis; format: cell-based; settings: dose 10-40 nM
[29] = target: Mitogen-activated protein kinase 8 (Homo sapiens, UniProt P45983); test: Inhibition of JNK1 (unknown origin)
[30] = target: T1, Signal transducer and activator of transcription 3; test: Inhibition of STAT3 phosphorylation at Tyr705 residue in human AGS cells upto 40 nM incubated upto 24 hrs by Western blotting analysis; format: cell-based
MGC-803 [31] = test: Potency index, ratio of IC50 for BBI608 to IC50 for test compound for antiproliferative activity against human MGC-803 cells assessed as reduction in cell viability incubated for 72 hrs by MTS assay; format: functional
MKN-45 [32] = test: Antitumor activity against human MKN-45 cells xenografted in BALB/c nude mouse assessed as reduction in Ki67 gene expression at 25 to 50 mg/kg, po qd administered for 5 weeks immunohistochemical analysis; format: functional, organism-based; settings: dose 25-50 mg/kg
MKN-45 [33] = test: Inhibition of mitochondrial respiration in STAT3 knockdown human MKN-45 cells assessed as basal oxygen consumption rate incubated for 80 mins […]; format: functional, cell-based
[34] = target: T1, Signal transducer and activator of transcription 3; test: Inhibition of STAT3 in human AGS cells assessed as downregulation of c-myc expression at 10 to 40 nM incubated for 24 hrs by RT-PCR analysis; format: cell-based; settings: dose 10-40 nM
[35] = target: T1, Signal transducer and activator of transcription 3; test: Inhibition of STAT3 phosphorylation at Ser727 residue in human AGS cells upto 40 nM incubated upto 24 hrs by Western blotting analysis; format: cell-based
[36] = Oral bioavailability in ICR mouse plasma at 10 mg/kg measured up to 24 hrs by LC-MS/MS analysis; format: ADME, organism-based

T1 sequence (P40763 whole entry, the tested form may be a part): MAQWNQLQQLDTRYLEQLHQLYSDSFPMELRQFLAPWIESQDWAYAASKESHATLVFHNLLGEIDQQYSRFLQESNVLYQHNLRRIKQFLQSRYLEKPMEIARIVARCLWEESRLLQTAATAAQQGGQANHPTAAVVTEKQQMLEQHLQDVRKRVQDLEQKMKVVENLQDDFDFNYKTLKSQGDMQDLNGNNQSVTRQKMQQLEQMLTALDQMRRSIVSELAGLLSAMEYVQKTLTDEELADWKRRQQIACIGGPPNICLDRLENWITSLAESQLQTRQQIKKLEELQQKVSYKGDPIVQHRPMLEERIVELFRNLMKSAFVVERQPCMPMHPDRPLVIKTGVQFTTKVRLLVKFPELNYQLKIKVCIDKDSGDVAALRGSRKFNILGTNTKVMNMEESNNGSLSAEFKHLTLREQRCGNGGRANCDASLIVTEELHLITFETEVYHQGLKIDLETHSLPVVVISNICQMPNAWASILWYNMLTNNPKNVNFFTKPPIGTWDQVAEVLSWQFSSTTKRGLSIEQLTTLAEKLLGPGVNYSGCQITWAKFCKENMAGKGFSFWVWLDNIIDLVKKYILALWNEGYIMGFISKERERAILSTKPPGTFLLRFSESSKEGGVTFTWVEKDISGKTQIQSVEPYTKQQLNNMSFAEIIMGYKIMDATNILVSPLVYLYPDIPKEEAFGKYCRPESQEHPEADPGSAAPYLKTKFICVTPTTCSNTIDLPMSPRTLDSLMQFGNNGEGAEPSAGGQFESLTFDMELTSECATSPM
Mitogen-activated protein kinase 8, sequence (P45983 whole entry): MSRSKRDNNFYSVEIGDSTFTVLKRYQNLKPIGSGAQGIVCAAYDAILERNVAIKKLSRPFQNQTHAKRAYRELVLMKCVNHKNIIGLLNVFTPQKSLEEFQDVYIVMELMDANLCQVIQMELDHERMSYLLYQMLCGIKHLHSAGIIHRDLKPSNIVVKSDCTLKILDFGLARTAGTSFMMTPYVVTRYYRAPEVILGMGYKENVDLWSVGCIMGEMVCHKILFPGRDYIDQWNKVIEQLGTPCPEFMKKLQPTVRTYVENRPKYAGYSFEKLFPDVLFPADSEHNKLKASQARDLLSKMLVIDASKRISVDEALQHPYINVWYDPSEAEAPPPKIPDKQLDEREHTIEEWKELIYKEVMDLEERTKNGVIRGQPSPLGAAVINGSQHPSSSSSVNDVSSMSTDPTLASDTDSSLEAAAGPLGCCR

O=C(c1ccc(-c2noc(-c3ccc(C(F)(F)F)cc3)n2)cc1)N1CCN(Cc2ccc(OCC(F)(F)F)cc2)CC1
Kd [1]: 76.4 nM
inhibition (MKN-45 [2]): Active
Activity (MKN-45 [3]): 19.6%
inhibition [4]: 100%
viability at 0.005 µM (AGS [5]): 85.7%
half-life [6]: 16 h
inhibition [7]: Dde
Activity [8]: Non-Toxic
inhibition [9]: Dde
Activity [10]: Non-Toxic
Activity [11]: Non-Toxic
Activity (AGS [12]): 10.4%
Ratio IC50 (AGS [13]): 30
inhibition [14]: Active
Activity (MKN-45 [15]): 8.54%
Activity (MKN-45 [16]): Dde
Activity (MKN-45 [17]): Dde
Activity [18]: Active
Activity [19]: Non-Toxic
inhibition [20]: Dde
Activity (AGS [21]): 2.57%
IC50 (AGS [22]): 13.5 nM
inhibition (MKN-45 [23]): Active
Activity [24]: Non-Toxic
AUC(0-inf) [25]: 15500 ng·h/mL
IC50 (MGC-803 [26]): 8.7 nM
inhibition [27]: Dde
inhibition [28]: Active
IC50 [29]: > 10000 nM
inhibition [30]: 100%
Ratio IC50 (MGC-803 [31]): 30
Activity (MKN-45 [32]): Active
inhibition (MKN-45 [33]): Active
inhibition [34]: Active
inhibition [35]: 100%
bioavailability [36]: 54.4%
